Values quoted from earlier work as cited in patent publication US20140294923A1, “ACTH FOR TREATMENT OF MIGRAINE HEADACHE” (priority 2013, published 2014).

Test system: CGRP release
Conditions: experimental models; Ulrich-Lai 2001

## ACTH (SYSMEHFRWGKPVGKKRRPVKVYPDGAEDQLAEAFPLEF)
  release of CGRP: inhibit the release of CGRP
